The results in this text go back to patent US9422331B2, “2-oxo-2,3,4,5-tetrahydro-1 H-benzo[B]diazepines and their use in the treatment of cancer” (Hoffmann-La Roche Inc., priority 2012, dated 2016).

Molecules are shown by their SMILES. Where a name gives a salt, the structure may show the parent alone. Read-outs that look alike come from different tables or passages of the source. A value given as a limit tells only on which side of the number the result lay.

Experiment [1] addresses BIR2 domain of XIAP (Homo sapiens (Human), UniProt P98170, C202A/C213G). Description: TR-FRET assay for BIR2: inhibition of binding of XIAP BIR2 domain to Peptide A (SMAC-derived peptide). In general terms: In TR-FRET formats the signal depends on donor and acceptor labels being close together.
Experiment [2] concerns the target BIR3 domain of XIAP (Homo sapiens (Human), UniProt P98170). The experiment can be described thus: TR-FRET assay for BIR3: inhibition of binding of XIAP BIR3 domain to Peptide A (SMAC-derived peptide).
Where [3] appears, read: 6x Histidine-tagged BIR2 domain (amino acids 124-240 of XIAP), 10 nM, 20 nM peptide AVPIAQKSEK-(ε-biotin)-OH, TR-FRET.
The mark [4] stands for this setting: 6x Histidine-tagged BIR3 domain (amino acids 241-356 of XIAP), 10 nM, 20 nM peptide AVPIAQKSEK-(ε-biotin)-OH, TR-FRET.

BIR2 domain of XIAP, sequence (P98170 124-240 C202A/C213G): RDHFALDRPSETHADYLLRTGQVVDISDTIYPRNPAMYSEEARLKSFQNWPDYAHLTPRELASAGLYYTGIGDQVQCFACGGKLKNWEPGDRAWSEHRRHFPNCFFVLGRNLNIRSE
BIR3 domain of XIAP, sequence (P98170 241-356): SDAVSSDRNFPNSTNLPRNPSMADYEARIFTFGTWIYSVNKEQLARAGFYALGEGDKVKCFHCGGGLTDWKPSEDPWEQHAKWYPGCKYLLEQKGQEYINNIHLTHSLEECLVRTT

For orientation: IC50 means the midpoint of a concentration-inhibition curve. Read a high IC50 as a need for much substance. With `CN[C@@H](C)C(=O)N[C@@H]1C(=O)N(Cc2noc3cc(Br)ccc23)c2ccccc2N(C(=O)CS(C)(=O)=O)[C@H]1C` [Example 41, (S)-N-((3S,4S)-1-((6-bromobenzo[d]isoxazol-3-yl)methyl)-4-methyl-5-(2-(methylsulfonyl)acetyl)-2-oxo-2,3,4,5-tetrahydro-1H-benzo[b][1,4]diazepin-3-yl)-2-(methylamino)propanamide 2,2,2-trifluoroacetate], the half-inhibitory concentration (IC50) in experiment [1] was 416 nM; in experiment [2], > 54800 nM.
The matching figures for `CN[C@@H](C)C(=O)N[C@@H]1C(=O)N(Cc2c(C)cnc3ccccc23)c2ccccc2N(C(C)=O)[C@H]1C` [Example 20, (S)-N-((2S,3S)-1-Acetyl-2-methyl-5-((3-methylquinolin-4-yl)methyl)-4-oxo-2,3,4,5-tetrahydro-1H-benzo[b][1,4]diazepin-3-yl)-2-(methylamino)propanamide dihydrochloride]: 55 nM and > 54800 nM.
Take `CCN[C@@H](C)C(=O)N[C@@H]1C(=O)N(Cc2c(C)ccc3ccccc23)c2ccc(C#N)cc2N(C(=O)CS(C)(=O)=O)[C@H]1C` [Example 28, (S)-N-((3S,4S)-7-Cyano-4-methyl-1-((2-methylnaphthalen-1-yl)methyl)-5-(2-(methylsulfonyl)acetyl)-2-oxo-2,3,4,5-tetrahydro-1H-benzo[b][1,4]diazepin-3-yl)-2-(ethylamino)propanamide hydrochloride]: the IC50 in experiment [1] is 75 nM; in experiment [2], > 54800 nM.
Regarding `CN[C@@H](C)C(=O)N[C@@H]1C(=O)N(Cc2nn(-c3ccccc3C#N)c3ccccc23)c2ccc(C#N)cc2N(C(=O)CS(C)(=O)=O)[C@H]1C` [Example 53, (S)-N-((3S,4S)-7-cyano-1-((1-(2-cyanophenyl)-1H-indazol-3-yl)methyl)-4-methyl-5-(2-(methylsulfonyl)acetyl)-2-oxo-2,3,4,5-tetrahydro-1H-benzo[b][1,4]diazepin-3-yl)-2-(methylamino)propanamide 2,2,2-trifluoroacetate], the IC50 was 33 nM in experiment [1] and > 54800 nM in experiment [2].
On to `CN[C@@H](C)C(=O)N[C@@H]1C(=O)N(Cc2nn(-c3ccccc3C#N)c3ccccc23)c2ccccc2N(C(=O)c2ccc(C(C)=O)cc2)[C@H]1C` [Example 3, (S)-N-{(2S,3S)-1-(4-acetyl-benzoyl)-5-[1-(2-cyano-phenyl)-1H-indazol-3-ylmethyl]-2-methyl-4-oxo-2,3,4,5-tetrahydro-1H-benzo[b][1,4]diazepin-3-yl}-2-methylamino-propionamide hydrochloride], for which the IC50 in experiment [1] (setting [3]) was 12 nM; in experiment [2] (setting [4]) it was > 54800 nM.
The matching figures for `CN[C@@H](C)C(=O)N[C@@H]1C(=O)N(Cc2nn(-c3ccccc3C#N)c3ccccc23)c2ccccc2N(C(C)=O)[C@H]1C` [Example 19, (S)-N-((2S,3S)-1-Acetyl-5-((1-(2-cyanophenyl)-1H-indazol-3-yl)methyl)-2-methyl-4-oxo-2,3,4,5-tetrahydro-1H-benzo[b][1,4]diazepin-3-yl)-2-(methylamino)propanamide]: 44 nM and > 54800 nM.
With `CN[C@@H](C)C(=O)N[C@@H]1C(=O)N(Cc2ccnc3ccccc23)c2ccccc2N(C(=O)CS(C)(=O)=O)[C@H]1C` [Example 16, (S)-N-((2S,3S)-2-Methyl-1-(2-(methylsulfonyl)acetyl)-4-oxo-5-(quinolin-4-ylmethyl)-2,3,4,5-tetrahydro-1H-benzo[b][1,4]diazepin-3-yl)-2-(methylamino)propanamide hydrochloride], the half-maximal inhibitory concentration (IC50) in experiment [1] is 179 nM; in experiment [2], > 54800 nM.
The matching figures for `CN[C@@H](C)C(=O)N[C@@H]1C(=O)N(Cc2cc(=O)oc3cc(Cl)ccc23)c2ccccc2N(C(=O)CS(C)(=O)=O)[C@H]1C` [Example 40, (S)-N-((3S,4S)-1-((7-chloro-2-oxo-2H-chromen-4-yl)methyl)-4-methyl-5-(2-(methylsulfonyl)acetyl)-2-oxo-2,3,4,5-tetrahydro-1H-benzo[b][1,4]diazepin-3-yl)-2-(methylamino)propanamide 2,2,2-trifluoroacetate]: 354 nM and > 54800 nM.
